Results on 8 compounds are retold here after patent publication US5462936A, “Benzothiazepine derivatives” (Shionogi & Co., Ltd., priority 1991, dated 1995).

The IC50 is the point on the concentration scale where inhibition reaches its midpoint. As a reminder, the inhibition is the percentage by which the read-out fell short of the control. The inhibition in vivo is the percentage by which the read-out fell short of the control. High values mean a response far below the control, low ones a response near the control.

Structures are written as SMILES.

In one assay the target is Calcium Channel (Oryctolagus cuniculus, UniProt P15381). As to the kind of experiment: Calcium channel antagonism: relaxing action on extracted blood vessel (rabbit femoral artery, contracture by 50 mM KCl). The settings on record: 50 mM KCl contracture, 50% of maximum relaxing (0.1 mM papaverine). The protocol:
(§1) Calcium Channel Antagonism and […] Action (Relaxing Action on Extracted Blood Vessel)
(§2) Male rabbits weighing 2-3 kg (Rabiton, Japanese albino species) were anesthetized through intravenous administration of pentobarbital (50 mg/kg), and sacrificed by bloodletting through dissection of axillary artery. Femoral artery was extracted, connective tissue surrounding the artery was removed, and helical specimen was prepared. The specimen was suspended in an organ bath (20 cc) filled with 37° C. Krebs-Henseleit nutritious solution and bubbled with a 95% O2 +5% CO2 mixed gas. 1.5 g of resting tension was loaded on femoral artery. Isometric change of the tension of the specimen was recorded on a thermal recorder (Nippon Koden WT-685G) via F-D pickup Nippon Koden (TB611T) and Preamp (Nippon Koden). Ca-antagonism of a test compound was evaluated by observing relaxing action due to accumulative addition of the compound on the contracture caused by the application of 50 mM KCl. α-Blocking action was similarly evaluated by observing such relaxing action on the contracture caused by the application of 1 μM norepinephrine (NE). […] The concentration of a given compound, which is necessary for giving 50% of the maximum relaxing (IC50), was determined using the above system.

For the next assay, the system named is cultured cardiac cells. Put plainly: Anti-hypoxia action on cultured cardiac cells (inhibition of CPK leakage). Format: cell-based, rat (newborn Crj-SD). Conditions: Rattus norvegicus, read-out: Anti-hypoxia Activity (%), rate of inhibition on CPK leakage. The protocol: Anti-hypoxia action of the compounds of the present invention were investigated through studying their action in connection with the protection of cardiomuscular cells.
Primary culture of cardiac cells was prepared from newborn Crj-SD rats (2-3 day old) and used in the experiment. The primary culture was prepared according to the method described by Jones R. L. et al., Am. J. Pathol., 135, 541-556, 1989. Thus, cardiac cells were isolated from ventricle muscle using collagenase and pancreatin, and then the cardiac cells were separated and purified from cell debris, erythrocytes, and fibroblasts by means of Percoll density-gradient centrifugation. The cells were spread on a culture plate at a ratio of 2-3×10^5 cells/3.5 cm plate, and the cells were cultured for two days in Dulbecco's Modified Eagle's Medium (DMEM) containing 10% Fetal Bovine Serum (FBS) in an incubator (5% CO2 /95% Air) kept at 37° C. After sufficient growth of the cardiac cells, the culture medium was changed to DMEM free from FBS, and the culture was continued additional one day. The cells thus obtained were used in the experiment.
Hypoxia was generated using Gas Pak™ Anaerobic Chamber (BBL) which produces hypoxia by capturing residual O2 and changing it into H2 0 by the action of a H2 /CO2 generating bag and catalyst. The cardiac cell plate, wherein the culture medium had been changed to DMEM which is free from FBS and glucose, was set in the chamber, and the chamber was placed in an incubator. Anti-hypoxia activity of test compounds was determined by measuring inhibition rate of leakage of creatine phosphokinase activity into the culture medium.
The compounds tested were all dissolved in DMSO using HCO-50 as a solubilizing agent (DMSO:HCO-50=9:1), and directly charged onto the culture plate. The final concentrations of DMSO and HCO-50 in the culture medium were adjusted to 0.09% and 0.01% respectively. CPK activity was measured by colorimetry (Wako Kit) modified from Oliver method.
The numerical values in the table show cardiac cells-protecting activity of test compounds in terms of the rate (%) of inhibition on CPK leakage determined in connection with the test compounds when the amount of the CPK leakage for negative control (no addition of the test compounds) was defined as 100%.

Assay [1] relates to spontaneous hypertensive rats (SHR). Put plainly: Action on blood pressure and heart rate of not-anesthetized SHR. The settings on record: 2 and 4 hours after administration; for Antihypertensive action (%): decrease in SBP. Format: in vivo, rat (SHR).
Experimental: Action of the compounds of the invention on blood pressure and heart rate of not-anesthetized spontaneous hypertensive rats (SHR)
Male Japanese Charles-River SHR (13-17 week old) were used in the experiment (S. Matsuda, J. Pharmacol. Method, 17 361, 1987). Systolic blood pressure (SBP) and heart rate of the animals were measured non-invasively (indirectly) using hemadynamometer for caudal artery pressure (6 channel type) before the administration of test compounds, at 2 and 4 hours after administration. Test compounds were dissolved in DMSO (100%) and orally administered. Decreased values in SBP and heart rate determined 2 and 4 hours after administration when compared with those determined before administration are shown in percentage (%) in the following table.
In assay [2] the test system is cardiac muscle damage due to ischemia. As to the kind of experiment: Anti-necrosis activity (left coronary ligation and reperfusion, CPK retention in left ventricle). In kind it is in vivo, rat (Wistar). Conditions: Rattus norvegicus; for inhibition in vivo at 0.3 mg/kg: 0.3 mg/kg iv; for inhibition in vivo at 1 mg/kg: 1 mg/kg iv. The protocol: Male Sic Wistar rats weighing 200-250 g were anesthetized with urethane (1 g/kg), and ramus descendens of the left coronaria was ligated for 20 minutes and then reperfused according to the method described by Hock et al (Hock, […]., Am. Heart J., 109 222, 1985). […] For three hours after the reperfusion, the rats were subjected to heat insulation on a warming mat. After 120 minutes, the hearts were extracted, and the free walls of the left ventricles were frozen and storred until determination of CPK activity. CPK activity was determined according to the method of Bernauer, W. (Arch. int. Pharmacodyn., 231 90, 1978) after minor modification. Thus, the extracted tissue was homogenized in 10 volumes of 0.1M Tris/HCl (pH 7.5) containing 1 mM mercaptoethanol and centrifuged at 20,000 g for 20 minutes. The supernatant was used for determination of CPK activity, which was conducted using a commercially available kit (CPK-Test, Wako). CPK was determined using serum CPK as a standard and expressed with "U/mg protein". […] The degree of the inhibition was measured in terms of the CPK activity retained in the left ventricle. The test results are shown in Table 7, wherein percentage of the retention (%) at each dose was calculated based on the following equation.

The test system of another assay is femoral artery. As to the kind of experiment: α-Blocking action: relaxing action on extracted blood vessel (rabbit femoral artery, contracture by 1 μM norepinephrine). Conditions: Oryctolagus cuniculus, 1 μM norepinephrine contracture, 50% of maximum relaxing (0.1 mM papaverine), read-out: Relaxing action on Blood Vessel IC50, 1 μM-NE. The protocol:
as §1, §2

Sequence of Calcium Channel (P15381 whole entry): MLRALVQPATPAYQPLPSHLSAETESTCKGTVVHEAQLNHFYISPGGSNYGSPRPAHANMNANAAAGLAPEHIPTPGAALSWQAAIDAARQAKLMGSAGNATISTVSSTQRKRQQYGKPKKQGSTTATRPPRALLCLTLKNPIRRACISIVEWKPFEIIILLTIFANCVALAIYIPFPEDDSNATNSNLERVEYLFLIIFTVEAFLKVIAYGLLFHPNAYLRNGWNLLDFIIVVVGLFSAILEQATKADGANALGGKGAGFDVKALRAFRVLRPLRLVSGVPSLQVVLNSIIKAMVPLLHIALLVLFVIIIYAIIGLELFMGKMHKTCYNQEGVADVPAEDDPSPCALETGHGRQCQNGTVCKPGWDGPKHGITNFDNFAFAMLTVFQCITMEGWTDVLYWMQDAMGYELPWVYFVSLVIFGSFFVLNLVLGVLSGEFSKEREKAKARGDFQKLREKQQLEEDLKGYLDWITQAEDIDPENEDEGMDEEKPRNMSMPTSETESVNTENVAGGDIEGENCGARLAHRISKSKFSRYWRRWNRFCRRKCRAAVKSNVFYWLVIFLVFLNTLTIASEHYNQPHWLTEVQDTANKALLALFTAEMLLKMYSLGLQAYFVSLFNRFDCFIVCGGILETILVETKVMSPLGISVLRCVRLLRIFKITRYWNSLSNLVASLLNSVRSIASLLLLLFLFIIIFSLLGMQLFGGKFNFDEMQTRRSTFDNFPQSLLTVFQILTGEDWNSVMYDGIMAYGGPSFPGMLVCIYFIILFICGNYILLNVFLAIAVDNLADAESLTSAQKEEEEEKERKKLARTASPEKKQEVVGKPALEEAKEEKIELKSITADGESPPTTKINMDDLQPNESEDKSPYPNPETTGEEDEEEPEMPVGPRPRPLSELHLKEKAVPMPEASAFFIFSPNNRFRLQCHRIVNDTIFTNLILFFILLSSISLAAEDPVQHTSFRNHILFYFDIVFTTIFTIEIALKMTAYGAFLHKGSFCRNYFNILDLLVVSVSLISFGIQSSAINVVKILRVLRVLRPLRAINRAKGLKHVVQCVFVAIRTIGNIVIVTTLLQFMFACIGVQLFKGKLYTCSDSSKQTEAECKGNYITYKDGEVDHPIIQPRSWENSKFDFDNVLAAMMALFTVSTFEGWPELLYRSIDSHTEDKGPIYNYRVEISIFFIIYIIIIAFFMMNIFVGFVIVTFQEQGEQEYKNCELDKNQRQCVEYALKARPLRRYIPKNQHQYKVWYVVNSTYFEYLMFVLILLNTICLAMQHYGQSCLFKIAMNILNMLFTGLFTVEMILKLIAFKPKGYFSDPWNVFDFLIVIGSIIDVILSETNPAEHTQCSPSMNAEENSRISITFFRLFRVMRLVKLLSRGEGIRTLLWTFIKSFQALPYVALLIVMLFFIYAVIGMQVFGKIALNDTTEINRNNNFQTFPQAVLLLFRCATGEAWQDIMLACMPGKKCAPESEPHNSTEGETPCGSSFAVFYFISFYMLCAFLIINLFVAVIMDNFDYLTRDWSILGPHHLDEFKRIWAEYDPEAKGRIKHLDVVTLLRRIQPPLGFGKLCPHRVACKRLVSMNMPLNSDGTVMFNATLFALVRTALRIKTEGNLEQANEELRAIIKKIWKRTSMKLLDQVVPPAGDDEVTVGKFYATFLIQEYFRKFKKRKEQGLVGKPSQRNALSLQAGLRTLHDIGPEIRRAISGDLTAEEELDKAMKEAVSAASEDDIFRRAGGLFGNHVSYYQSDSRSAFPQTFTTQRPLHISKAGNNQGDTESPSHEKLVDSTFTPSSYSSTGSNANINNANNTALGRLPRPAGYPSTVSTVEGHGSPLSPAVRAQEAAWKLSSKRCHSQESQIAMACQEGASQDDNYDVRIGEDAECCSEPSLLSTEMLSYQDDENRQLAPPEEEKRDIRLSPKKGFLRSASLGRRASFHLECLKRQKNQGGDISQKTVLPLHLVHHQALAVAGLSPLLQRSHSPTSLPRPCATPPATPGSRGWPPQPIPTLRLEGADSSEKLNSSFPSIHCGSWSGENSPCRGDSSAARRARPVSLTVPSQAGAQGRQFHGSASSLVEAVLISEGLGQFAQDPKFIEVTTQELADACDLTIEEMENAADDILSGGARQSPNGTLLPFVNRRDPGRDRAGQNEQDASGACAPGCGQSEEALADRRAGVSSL
Sequence of Calcium Channel (P13806 27-960 partner limits assumed): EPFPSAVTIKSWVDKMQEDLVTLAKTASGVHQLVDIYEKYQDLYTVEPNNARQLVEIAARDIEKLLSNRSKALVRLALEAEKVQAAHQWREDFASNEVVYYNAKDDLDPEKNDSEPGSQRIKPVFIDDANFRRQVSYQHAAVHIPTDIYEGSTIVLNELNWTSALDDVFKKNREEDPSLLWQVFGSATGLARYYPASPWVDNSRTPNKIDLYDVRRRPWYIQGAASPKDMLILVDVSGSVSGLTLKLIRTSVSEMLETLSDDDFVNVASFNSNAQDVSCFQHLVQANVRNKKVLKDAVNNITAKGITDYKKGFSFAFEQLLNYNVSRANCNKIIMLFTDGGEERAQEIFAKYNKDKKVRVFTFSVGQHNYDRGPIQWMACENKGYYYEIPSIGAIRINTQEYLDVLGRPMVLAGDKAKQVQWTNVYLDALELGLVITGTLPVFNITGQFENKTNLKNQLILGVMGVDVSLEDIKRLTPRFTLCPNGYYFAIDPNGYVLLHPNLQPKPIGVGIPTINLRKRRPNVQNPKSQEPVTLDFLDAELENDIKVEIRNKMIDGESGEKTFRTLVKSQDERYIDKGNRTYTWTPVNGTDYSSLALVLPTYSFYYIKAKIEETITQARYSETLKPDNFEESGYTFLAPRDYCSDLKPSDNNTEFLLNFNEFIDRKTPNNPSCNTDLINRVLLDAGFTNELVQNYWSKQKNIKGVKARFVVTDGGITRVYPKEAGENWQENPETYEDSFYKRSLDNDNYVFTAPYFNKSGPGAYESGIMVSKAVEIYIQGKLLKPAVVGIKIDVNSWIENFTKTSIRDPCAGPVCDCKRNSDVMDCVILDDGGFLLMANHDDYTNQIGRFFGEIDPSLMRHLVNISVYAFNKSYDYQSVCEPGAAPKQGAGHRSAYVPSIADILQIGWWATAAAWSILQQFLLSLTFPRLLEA
Sequence of Calcium Channel (P13806 961-1106 partner limits assumed): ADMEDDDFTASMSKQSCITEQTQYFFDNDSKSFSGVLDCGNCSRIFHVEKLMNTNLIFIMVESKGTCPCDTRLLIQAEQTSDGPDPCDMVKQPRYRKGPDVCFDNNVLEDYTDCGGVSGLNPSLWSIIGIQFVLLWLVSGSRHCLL

`COc1ccc([C@@H]2Sc3cc(Cl)ccc3N(CCCN3CCN(C(c4ccccc4)c4ccc(Cl)cc4)CC3)C(=O)[C@@H]2OC(C)=O)cc1` (stereo partly drawn) [Compound I-22, (2S-cis)-3-Acetoxy-5-[3-(4-(4-chlorobenzhydryl)-1-piperazinyl)propyl]-2,3-dihydro-2-(4-methoxyphenyl)-8-chloro-l,5-benzothiazepin-4(5H)-one]: on Calcium Channel, the IC50 was determined as 340 nM. For the same compound, in the assay on cultured cardiac cells, the inhibition at 1 µM was 25.7% and the inhibition at 10 µM is 73.9%. Moreover, in assay [1] (30 mg/kg PO), the “Decrease of heart rate (%)” value is 9.4% and the “Antihypertensive action (%)” value is 18%. In assay [2], this compound returned an inhibition in vivo at 0.3 mg/kg of 45%.

As for `COc1ccc([C@@H]2Sc3cc(C)ccc3N(CCCN3CCN(c4ccccc4OC)CC3)C(=O)[C@@H]2OC(C)=O)cc1` [Compound I-36, (2S-cis)-3-Acetoxy-5-[3-(4-(2methoxyphenyl) - 1-piperazinyl)propyl]-2,3-dihydro-2-(4-methoxyphenyl)-8-methyl-1,5-benzothiazepin-4 (5H)-one], the figures for the half-inhibitory concentration (IC50) on Calcium Channel and in the assay with femoral artery were 140 nM and 20 nM, respectively. In assay [2], testing at 1 mg/kg gave an inhibition in vivo of 30%.

As to `COc1ccc([C@@H]2Sc3cc(OC)ccc3N(CCCN3CCN(c4ccccc4OC)CC3)C(=O)[C@@H]2OC(C)=O)cc1` [Compound I-35, (2S-cis)-3-Acetoxy-5-[3-(4-(2-methoxyphenyl)-1-piperazinyl)propyl]-2,3-dihydro-2-(4-methoxyphenyl)-8-methoxy-l,5-benzothiazepin-4(5H)-one], the IC50 at Calcium Channel was 120 nM; in the assay with femoral artery, 30 nM. This compound also returned an inhibition in vivo at 1 mg/kg in assay [2] of 37%.

On to `COc1ccc([C@@H]2Sc3cc(Cl)ccc3N(CCCN3CCN(C(c4ccccc4)c4ccccc4)CC3)C(=O)[C@@H]2OC(C)=O)cc1` [Compound I-23, (2S-cis)-3-Acetoxy-5-[3-(4-(benzhydryl)-piperazinyl)propyl]-2,3-dihydro-2-(4-methoxyphenyl)-8-chloro-1,5-benzothiazepin-4(5H)-one], for which, in the assay on cultured cardiac cells, the inhibition at 1 µM amounted to 36.4% and the inhibition at 10 µM amounted to 87%. In addition, in assay [1] (30 mg/kg PO), the “Decrease of heart rate (%)” value is listed as 12% and the “Antihypertensive action (%)” value was found to be 16%. This compound displayed an inhibition in vivo at 0.3 mg/kg in assay [2] of 45%.

Consider `COc1ccc([C@@H]2Sc3cc(Cl)ccc3N(CCCN3CCN(C(c4ccc(F)cc4)c4ccc(F)cc4)CC3)C(=O)[C@@H]2OC(C)=O)cc1` (relative stereo) [Compound I-15, 3-Acetoxy-5-[3-(4-(4,4'-difluorobenzhydryl) -1-piperazinyl)propyl]-2,3-dihydro-2-(4-methoxyphenyl)-8-chloro-1,5-benzothiazepin-4(5H)-one], for which the IC50 at Calcium Channel is 57 nM. In addition, in the assay with femoral artery, the IC50 was determined as 600 nM. In addition, in the assay on cultured cardiac cells, the inhibition at 10 µM amounted to 76%. In assay [1] (60 mg/kg PO), the “Decrease of heart rate (%)” value amounted to 6.5% and the “Antihypertensive action (%)” value worked out at 17%.

Turning to `COc1ccc([C@@H]2Sc3cc(Cl)ccc3N(CCCN3CCN(c4ccccc4OC)CC3)C(=O)[C@@H]2OC(C)=O)cc1.Cl` [Compound I-18, (2S-cis)-3-Acetoxy-5-[3-(4-(2-methoxyphenyl) -1-piperazinyl)propyl]-2,3-dihydro-2(4-methoxyphenyl) -8-chloro-1,5-benzothiazepin-4(5H)-one hydrochloride], the IC50 at Calcium Channel came to 250 nM. Moreover, the IC50 in the assay with femoral artery was found to be 37 nM. Also, in the assay with cultured cardiac cells, the inhibition at 1 µM was 23.7% and the inhibition at 10 µM stood at 73.9%. In assay [1] (30 mg/kg PO), the “Decrease of heart rate (%)” value is 7.0% and the “Antihypertensive action (%)” value is recorded as 18%. The compound further gave an inhibition in vivo at 0.1 mg/kg in assay [2] (0.1 mg/kg iv) of 30%. In addition, in assay [2], testing at 0.3 mg/kg gave an inhibition in vivo of 42%.

For `COc1ccc([C@@H]2Sc3cc(Cl)ccc3N(CCCN3CCN(c4ccccc4OC)CC3)C(=O)[C@@H]2OC(C)=O)cc1` (relative stereo) [Compound I-8, 3-Acetoxy-5-[3-(4-(2-methoxyphenyl)-piperazinyl)propyl]-2,3-dihydro-2-(4-methoxyphenyl)-8-chloro-1,5-benzothiazepin-4(5H)-one], the IC50 at Calcium Channel is 280 nM. Besides, the IC50 in the assay on femoral artery is 60 nM. Further, in the assay on cultured cardiac cells, the inhibition at 1 µM amounted to 17% and the inhibition at 10 µM was 70%. Moreover, in assay [1] (30 mg/kg PO), the “Decrease of heart rate (%)” value is 3.2% and the “Antihypertensive action (%)” value stood at 15%. Besides, in assay [2], the inhibition in vivo at 0.3 mg/kg came out at 29%.

`COc1ccc([C@@H]2Sc3ccccc3N(CCN(C)C)C(=O)[C@@H]2OC(C)=O)cc1` [Diltiazem, reference compound]: the half-inhibitory concentration (IC50) with femoral artery came out at 13300 nM. Besides, in the assay with cultured cardiac cells, the inhibition at 1 µM was 10% and the inhibition at 10 µM worked out at 29%. Further, in assay [1] (60 mg/kg PO), the “Decrease of heart rate (%)” value turned out to be 15% and the “Antihypertensive action (%)” value worked out at 11%. Also, 1 mg/kg produced 13% inhibition in vivo in assay [2].
